Laboratory results from US9534221B2, “Targeting the steroidogenic pathway for treating and/or preventing allergic diseases” (National Jewish Health, priority 2013, dated 2017).
“And” between values parts separate entries of the source, which are not always exact repeats. Equal values may be shown once.

Assays:
[1] = biological target: T1, Cyp11a1 (Mus musculus, UniProt Q9QZ82); experiment: Pregnenolone ELISA in supernatants of differentiated CD8+ T cells (Cyp11a1 enzymatic activity); type: cell-based; conditions: CD8+ T cells differentiated in IL-2+IL-4, AMG 500 μM; without AMG 424.8±35.5 pg/ml
T1 construct: mononuclear cells (MNCs) were processed from the spleens of OT-1 mice; endogenous in cells
T1 sequence (Q9QZ82 37-526): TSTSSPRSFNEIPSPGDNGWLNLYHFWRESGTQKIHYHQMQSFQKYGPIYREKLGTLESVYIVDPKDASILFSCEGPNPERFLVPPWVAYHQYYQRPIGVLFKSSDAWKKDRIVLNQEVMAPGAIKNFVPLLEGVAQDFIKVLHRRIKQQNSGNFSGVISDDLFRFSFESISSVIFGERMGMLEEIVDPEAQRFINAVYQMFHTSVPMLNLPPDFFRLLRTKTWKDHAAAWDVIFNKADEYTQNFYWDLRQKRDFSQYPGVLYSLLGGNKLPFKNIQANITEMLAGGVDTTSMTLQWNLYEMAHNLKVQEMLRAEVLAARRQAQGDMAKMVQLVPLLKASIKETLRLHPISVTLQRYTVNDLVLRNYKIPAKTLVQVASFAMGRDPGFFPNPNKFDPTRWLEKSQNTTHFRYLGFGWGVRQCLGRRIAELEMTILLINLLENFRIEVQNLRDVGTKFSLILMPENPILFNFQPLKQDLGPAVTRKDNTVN
Protocol: CD8^+ effector memory T cells were generated in vitro as previously described (Miyahara, N. et al. J. Immunol. 172, 2549-2558 (2004); Miyahara, N. et al. J. Immunol. 174, 4979-4984 (2005)). In brief, mononuclear cells (MNCs) were processed from the spleens of OT-1 mice followed by stimulation of 1 μg/ml [sequence] peptide (SEQ ID NO:1) was used to stimulate cells for 1.5 hours. Two days after culture, living cells were re-isolated using histopaque and cultured in complete RPMI 1640 medium that contained recombinant mouse IL-2 (20 ng/ml) (R&D, Minneapolis, Minn.) or IL-2+IL-4 (20 ng/ml) (Peprotech, Rocky Hill, N.J.). For some experiments, AMG was added into the medium together with IL-2 or IL-2+IL-4. Medium with cytokines was changed every day for a further 4 days. The cells were then re-stimulated with 1 μg/ml [sequence] (SEQ ID NO:1) in medium containing 2 μM monensin (Calbiochem, La Jolla, Calif.) for 4 hours.
CD8^+ T cells generated in the presence of IL-2, IL-2+IL-4, IL-2+AMG, or IL-2+IL-4+AMG were cultured in 6-well plates at 5×10^6/ml for 24 hours. Supernatants were collected. Pregnenolone levels were measured using the Pregnenolone ELISA kit (ALPCO Diagnostics, Salem, N.H.).
The enzymatic activity of Cyp11a1 was assessed using an ELISA assay for detection of pregnenolone levels in cell culture supernatants (Kim, C. J. et al. J. Clin. Endocrinol. Metab. 93, 696-702 (2008)).

[2] = system: Cyp11a1; experiment: Immunoblot analysis of Cyp11a1 protein in CD8+ T cells; type: cell-based, mouse; conditions: IL-2+IL-4, 500 μM AMG, with or without SIINFEKL re-stimulation
Protocol: In brief, mononuclear cells (MNCs) were processed from the spleens of OT-1 mice followed by stimulation of 1 μg/ml [sequence] peptide (SEQ ID NO:1) was used to stimulate cells for 1.5 hours. Two days after culture, living cells were re-isolated using histopaque and cultured in complete RPMI 1640 medium that contained recombinant mouse IL-2 (20 ng/ml) (R&D, Minneapolis, Minn.) or IL-2+IL-4 (20 ng/ml) (Peprotech, Rocky Hill, N.J.). For some experiments, AMG was added into the medium together with IL-2 or IL-2+IL-4. Medium with cytokines was changed every day for a further 4 days. The cells were then re-stimulated with 1 μg/ml [sequence] (SEQ ID NO:1) in medium containing 2 μM monensin (Calbiochem, La Jolla, Calif.) for 4 hours.
CD8^+ T cells (5×10^6) were lysed with RIPA buffer containing Hale™ protease and phosphatase inhibitor cocktail (Thermo Scientific, Rockford, Ill.) on ice for 30 minutes. Samples were run by sodium dodecyl sulfate polyacrylamide gel electrophoresis (SDS-PAGE) and transferred to nitrocellulose membranes. […] Immunoreactive bands of Western blottings were quantified by densitometric quantification of autoradiographs using Image J (NIMH, Bethesda, Md.), and expressed as relative Cyp11a1 normalized by β-actin.

[3] = system: CD8+ T cells; experiment: Flow cytometric intracellular staining of IFN-γ and IL-13 in CD8+ T cells; type: cell-based, mouse
Protocol: CD8^+ effector memory T cells were generated in vitro as previously described (Miyahara, N. et al. J. Immunol. 172, 2549-2558 (2004); Miyahara, N. et al. J. Immunol. 174, 4979-4984 (2005)). In brief, mononuclear cells (MNCs) were processed from the spleens of OT-1 mice followed by stimulation of 1 μg/ml SIINFEKL peptide (SEQ ID NO:1) was used to stimulate cells for 1.5 hours. Two days after culture, living cells were re-isolated using histopaque and cultured in complete RPMI 1640 medium that contained recombinant mouse IL-2 (20 ng/ml) (R&D, Minneapolis, Minn.) or IL-2+IL-4 (20 ng/ml) (Peprotech, Rocky Hill, N.J.). For some experiments, AMG was added into the medium together with IL-2 or IL-2+IL-4. Medium with cytokines was changed every day for a further 4 days. The cells were then re-stimulated with 1 μg/ml SIINFEKL (SEQ ID NO:1) in medium containing 2 μM monensin (Calbiochem, La Jolla, Calif.) for 4 hours. […]
For intracellular staining, 1×10^6/ml cells were washed twice with PBS containing 1% BSA, stimulated with 1 μg/ml SIINFEKL in the presence of 2 μM monensin at 37° C. for 4 hours. After fixation with 4% paraformaldehyde (Electron Microscopy Sciences, Hatfield, Pa.) and permeabilization with 0.1% saponin (Sigma, St. Louis, Mo.), cells were washed twice with PBS containing 1% BSA, then incubated with anti-mouse CD16/CD32 (2.4G2) (BD Bioscience, San Jose, Calif.) at 4° C. for 5 minutes, then stained with FITC labeled anti-mouse IFN-γ (XMG 1.2) (eBioscience, San Diego, Calif.) or PerCP-Cy5.5 labeled anti-mouse […] (XMG 1.2) (eBioscience) and PE-labeled anti-mouse IL-13 (eBio13A) (eBioscience). For some experiments, fixed cells were stained with biotin labeled rabbit anti-Cyp11a1/p450 cc polyclonal antibody (Bioss, Woburn, Mass.) followed by PE-Cy5 labeled streptavidin (PE-Cy5-SAv) (eBioscience). Cell staining was monitored on a FACSCalibur (BD Bioscience) and analyzed using Flowjo software (Tree Star, Inc, Ashland, Oreg.).

[4] = biological target: T1, Cyp11a1; experiment: Pregnenolone levels in serum of peanut sensitized and challenged mice (Cyp11a1 enzymatic activity); type: in vivo; conditions: AMG 20 mg/kg, PE/PE mice; PE/PE without AMG 4.69±0.92, PBS/PE 1.99±0.11
Protocol: AMG was dissolved in 1 M hydrogen chloride and diluted with saline for in vivo studies or diluted with RPMI medium for in vitro study. The final concentration of 1 M hydrogen chloride was less than 1% and 0.05% for in vivo and in vitro, respectively. PE sensitized and challenged mice received different doses (5, 10, 20 mg/kg) of the Cyp11a1 enzyme inhibitor (PE/PE/AMG) by means of gavage using a 22-gauge feeding needle (Fisher Scientific) twice a day during the peanut challenge phase. Controls included PE sensitized and challenged but vehicle (saline) treated (PE/PE/vehicle), or sham sensitized but PE challenged and vehicle-treated (PBS/PE/vehicle) mice.
Pregnenolone levels in serum and cell culture supernatants were measured by ELISA (ALPCO Diagnostics, Salem, N.H.), as described by the manufacturer.

[5] = system: CD8+ T cells; experiment: Flow cytometric intracellular staining of IFN-γ and IL-13 in CD8+ T cells; type: cell-based, mouse; conditions: no SIINFEKL
[6] = IL-2+AMG (500 μM)+SIINFEKL 1 μg/ml
[7] = IL-2+IL-4+AMG (500 μM), no SIINFEKL
[8] = SIINFEKL and IL-2+IL-4, different concentrations of AMG

Pregnenolone levels in cell supernatants [1]: 96.4 ± 35 pg/mL
Compound: CCC1(c2ccc(N)cc2)CCC(=O)NC1=O (stereo not shown) [AMG, aminoglutethimide]
Cyp11a1 protein levels (immunoblot) [2]: did not prevent IL-4-induced increases in Cyp11a1 protein levels | Overall suppressive or toxic effect on CD8+ T cell cultures ([3]; AMG in culture): did not have an overall suppressive or toxic effect | IFN-γ single positive cells [3, 6]: 78.3 +/− 8.3% | IFN-γ+IL13+ double positive cells [3, 6]: 9.0 +/− 2.7% | IL-13 single positive cells [3, 6]: 0.1 +/− 0.1% | IFN-γ+IL13+ double positive cells ([3]; IL-2+IL-4+AMG (500 μM)+SIINFEKL, without AMG 8.8±2.3%): 14.7±5.5% and 14.7 +/− 5.5% | IFN-γ single positive cells ([3]; IL-2+IL-4+AMG (500 μM)+SIINFEKL, without AMG 14.5±5.8%): 42.4±11.5% | IL-13 single positive cells ([3]; IL-2+IL-4+AMG (500 μM)+SIINFEKL, without AMG 35.7±8.2%): 14.7±8.9% | IFN-γ single positive cells [3, 7]: 0.9 +/− 0.5% | IL-13 single positive cells [3, 7]: 2.3 +/− 1.5% | IFN-γ-positive cells, dose dependence [3, 8]: increase in IFN-γ-positive cells | Percentage of IL-13-positive cells, dose dependence [3, 8]: dramatic dose-dependent decrease in the percentage of IL-13-positive cells | Duration of the effects of AMG on CD8+ T cell conversion before the cells recovered ([3]; initial studies): up to forty-eight hours | Pregnenolone levels in serum [4]: 2.98 ± 0.60 ng/mL | IFN-γ single positive cells ([5]; IL-2+AMG (500 μM)): 0.2 +/− 0.1% | IFN-γ+IL13+ double positive cells ([5]; IL-2+AMG (500 μM)): 0% | IL-13 single positive cells ([5]; IL-2+AMG (500 μM)): 0.4 +/− 0.2% | IFN-γ+IL13+ double positive cells ([5]; IL-2+IL-4+AMG (500 μM)): 0.1%
